Source: ChEMBL document CHEMBL1128380, “Antimalarial activity of novel ring-contracted artemisinin derivatives” (1995)

Experiments:
Assay type in all cases: functional
Mus musculus [1] = test: Antimalarial activity was determined by Blood schizonticidal activity in mice (Mus musculus) infected with Plasmodium berghei K173 at 20 (mg/kg x5) peroral dosage; Cured/treated = 0/6
Mus musculus [2] = test: Antimalarial activity was determined by Blood schizonticidal activity in mice (Mus musculus) infected with Plasmodium berghei K173 at 5 (mg/kg x5) subcutaneous dosage; Cured/treated = 0/6 on day 7
Mus musculus [3] = test: Antimalarial activity was determined by Blood schizonticidal activity in mice (Mus musculus) infected with Plasmodium berghei K173 at 5 (mg/kg x5) subcutaneous dosage; Cured/treated = 2/6 on day 7
Mus musculus [4] = test: Antimalarial activity was determined by Blood schizonticidal activity in mice (Mus musculus) infected with Plasmodium berghei K173 at 5 (mg/kg x5) subcutaneous dosage; Cured/treated = 1/6 on day 7
Mus musculus [5] = test: Antimalarial activity was determined by blood schizonticidal activity in mice (Mus musculus) infected with Plasmodium berghei K173 at 10 (mg/kgx5) subcutaneous dosage; Cured/treated = 0/6 on day 7
Mus musculus [6] = test: Antimalarial activity was determined by Blood schizonticidal activity in mice (Mus musculus) infected with Plasmodium berghei K173 at 5 (mg/kg x5) subcutaneous dosage; Cured/treated = 6/6 on day 7
Mus musculus [7] = test: Antimalarial activity was determined by blood schizonticidal activity in mice (Mus musculus) infected with Plasmodium berghei K173 at 1.25 (mg/kgx5) subcutaneous dosage; Cured/treated = 26/34 on day 7
Mus musculus [8] = test: Antimalarial activity was determined by Blood schizonticidal activity in mice (Mus musculus) infected with Plasmodium berghei K173 at 15 (mg/kg x5) peroral dosage; Cured/treated = 19/22 on day 7
Mus musculus [9] = test: Antimalarial activity was determined by blood schizonticidal activity in mice (Mus musculus) infected with Plasmodium berghei NS at 2.5 (mg/kgx5) subcutaneous dosage; Cured/treated = 11/12
Mus musculus [10] = test: Antimalarial activity was determined by Blood schizonticidal activity in mice (Mus musculus) infected with Plasmodium berghei K173 at 1 (mg/kg x5) subcutaneous dosage; Cured/treated = 10/22 on day 7
Mus musculus [11] = test: Antimalarial activity was determined by Blood schizonticidal activity in mice (Mus musculus) infected with Plasmodium berghei NS at 5 (mg/kg x5) subcutaneous dosage; Cured/treated = 22/22
Mus musculus [12] = test: Antimalarial activity was determined by Blood schizonticidal activity in mice (Mus musculus) infected with Plasmodium berghei K173 at 25 (mg/kgx5) peroral dosage; Cured/treated = 16/16
Mus musculus [13] = test: Antimalarial activity was determined by Blood schizonticidal activity in mice (Mus musculus) infected with Plasmodium berghei NS at 25 (mg/kgx5) peroral dosage; Cured/treated = 6/6
Mus musculus [14] = test: Antimalarial activity was determined by blood schizonticidal activity in mice (Mus musculus) infected with Plasmodium berghei K173 at 10 (mg/kgx5) peroral dosage; Cured/treated = 34/39 on day 7
Mus musculus [15] = test: Antimalarial activity was determined by Blood schizonticidal activity in mice (Mus musculus) infected with Plasmodium berghei K173 at 2.5 (mg/kgx5) subcutaneous dosage; Cured/treated = 28/28 on day 7
Mus musculus [16] = test: Antimalarial activity was determined by Blood schizonticidal activity in mice (Mus musculus) infected with Plasmodium berghei K173 at 2.5 (mg/kgx5) subcutaneous dosage; Cured/treated = 0/6 on day 7
Mus musculus [17] = test: Antimalarial activity was determined by Blood schizonticidal activity in mice (Mus musculus) infected with Plasmodium berghei K173 at 25 (mg/kgx5) peroral dosage; Cured/treated = 0/6 on day 7
Mus musculus [18] = test: Antimalarial activity was determined by blood schizonticidal activity in mice (Mus musculus) infected with Plasmodium berghei K173 at 5 (mg/kg x5) subcutaneous dosage; Cured/treated = 6/6
Mus musculus [19] = test: Antimalarial activity was determined by Blood schizonticidal activity in mice (Mus musculus) infected with Plasmodium berghei K173 at 10 (mg/kgx5) subcutaneous dosage; Cured/treated = 6/6
Mus musculus [20] = test: Antimalarial activity was determined by blood schizonticidal activity in mice (Mus musculus) infected with Plasmodium berghei K173 at 2.5 (mg/kgx5) subcutaneous dosage; Cured/treated = 0/4 on day 7
Mus musculus [21] = test: Antimalarial activity was determined by Blood schizonticidal activity in mice (Mus musculus) infected with Plasmodium berghei K173 at 5 (mg/kg x5) subcutaneous dosage; Cured/treated = 5/5
Mus musculus [22] = test: Antimalarial activity was determined by Blood schizonticidal activity in mice (Mus musculus) infected with Plasmodium berghei K173 at 10 (mg/kgx5) subcutaneous dosage; Cured/treated = 0/5 on day 7
Mus musculus [23] = test: Antimalarial activity was determined by Blood schizonticidal activity in mice (Mus musculus) infected with Plasmodium berghei K173 at 5 (mg/kg x5) subcutaneous dosage; Cured/treated = 0/5 on day 7
Mus musculus [24] = test: Antimalarial activity was determined by blood schizonticidal activity in mice (Mus musculus) infected with Plasmodium berghei K173 at 25 (mg/kgx5) peroral dosage; Cured/treated = 0/6
Mus musculus [25] = test: Antimalarial activity was determined by Blood schizonticidal activity in mice (Mus musculus) infected with Plasmodium berghei K173 at 5 (mg/kg x5) subcutaneous dosage; Cured/treated = 5/6 on day 7
Mus musculus [26] = test: Antimalarial activity was determined by Blood schizonticidal activity in mice (Mus musculus) infected with Plasmodium berghei K173 at 10 (mg/kgx5) subcutaneous dosage; Cured/treated = 0/4 on day 7

CCN(CC)CCOC[C@@]1(C)O[C@@H]2O[C@]3(C)CCC4[C@H](C)CC[C@@H]1[C@]42OO3 (some centres not stated)
Cured/treated (Mus musculus [1]): 0 | Cured/treated (Mus musculus [2]): 0

C[C@@H]1CC[C@@H]2[C@]34OO[C@@](C)(CCC13)O[C@H]4O[C@]2(C)C(=O)Sc1ccccc1 (some centres not stated)
Cured/treated (Mus musculus [3]): 2

C[C@@H]1CC[C@@H]2[C@]34OO[C@@](C)(CCC13)O[C@H]4O[C@]2(C)CC(=O)ONc1ccc(Cl)cc1 (some centres not stated)
Cured/treated (Mus musculus [4]): 1 | Cured/treated (Mus musculus [1]): 0

C[C@@H]1CC[C@@H]2[C@]34OO[C@@](C)(CCC13)O[C@H]4O[C@]2(C)COC(=O)C(=O)O (some centres not stated)
Cured/treated (Mus musculus [5]): 0

C[C@@H]1CC[C@@H]2[C@]34OO[C@@](C)(CCC13)O[C@H]4O[C@]2(C)C(=O)N1CCN(C)CC1 (some centres not stated)
Cured/treated (Mus musculus [5]): 0

C[C@@H]1CC[C@@H]2[C@]34OO[C@@](C)(CCC13)O[C@H]4O[C@]2(C)CO/C(S)=N/c1ccccc1 (some centres not stated)
Cured/treated (Mus musculus [6]): 6

C=CC/N=C(\S)OC[C@@]1(C)O[C@@H]2O[C@]3(C)CCC4[C@H](C)CC[C@@H]1[C@]42OO3 (some centres not stated)
Cured/treated (Mus musculus [5]): 0

C[C@@H]1CC[C@@H]2[C@]34OO[C@@](C)(CCC13)O[C@H]4O[C@]2(C)CO/C(S)=N/c1ccc(Cl)cc1 (some centres not stated)
Cured/treated (Mus musculus [7]): 26 | Cured/treated (Mus musculus [8]): 19 | Cured/treated (Mus musculus [9]): 11 | Cured/treated (Mus musculus [10]): 10 | Cured/treated (Mus musculus [11]): 22 | Cured/treated (Mus musculus [12]): 16 | Cured/treated (Mus musculus [13]): 6 | Cured/treated (Mus musculus [14]): 34 | Cured/treated (Mus musculus [15]): 28

C[C@@H]1CC[C@@H]2[C@]34OO[C@@](C)(CCC13)O[C@H]4O[C@]2(C)CO/C(S)=N\c1ccc(F)cc1 (some centres not stated)
Cured/treated (Mus musculus [16]): 0 | Cured/treated (Mus musculus [17]): 0 | Cured/treated (Mus musculus [18]): 6

CCOC(=O)c1cc(Cl)ccc1/N=C(/S)OC[C@@]1(C)O[C@@H]2O[C@]3(C)CCC4[C@H](C)CC[C@@H]1[C@]42OO3 (some centres not stated)
Cured/treated (Mus musculus [5]): 0

C[C@@H]1CCC2[C@]34OOC(C)(CCC13)O[C@H]4O[C@]2(C)CO (single isomer, unassigned)
Cured/treated (Mus musculus [5]): 0

C[C@@H]1CCC2[C@]34OOC(C)(CCC13)O[C@H]4O[C@]2(C)C(=O)O (single isomer, unassigned)
Cured/treated (Mus musculus [5]): 0

C#CCOC[C@@]1(C)O[C@@H]2OC3(C)CCC4[C@H](C)CC[C@@H]1[C@]42OO3 (single isomer, unassigned)
Cured/treated (Mus musculus [19]): 6 | Cured/treated (Mus musculus [2]): 0

C[C@@H]1CC[C@@H]2[C@]34OOC(C)(CCC13)O[C@H]4O[C@]2(C)COC/C=C/c1ccccc1 (single isomer, unassigned)
Cured/treated (Mus musculus [2]): 0

C[C@@H]1CC[C@@H]2[C@]34OOC(C)(CCC13)O[C@H]4O[C@]2(C)C(=O)OCCBr (single isomer, unassigned)
Cured/treated (Mus musculus [2]): 0

C=CCOC(=O)[C@@]1(C)O[C@@H]2OC3(C)CCC4[C@H](C)CC[C@@H]1[C@]42OO3 (single isomer, unassigned)
Cured/treated (Mus musculus [5]): 0

C[C@@H]1CC[C@@H]2[C@]34OOC(C)(CCC13)O[C@H]4O[C@]2(C)/C=C/c1ccc(C(F)(F)F)cc1 (single isomer, unassigned)
Cured/treated (Mus musculus [20]): 0 | Cured/treated (Mus musculus [21]): 5

CCOC(=O)C(=C[C@@]1(C)O[C@@H]2OC3(C)CCC4[C@H](C)CC[C@@H]1[C@]42OO3)C(=O)OCC (single isomer, unassigned)
Cured/treated (Mus musculus [22]): 0

CCOC(=O)/C=C\[C@@]1(C)O[C@@H]2OC3(C)CCC4[C@H](C)CC[C@@H]1[C@]42OO3 (single isomer, unassigned)
Cured/treated (Mus musculus [23]): 0

C[C@@H]1CC[C@@H]2[C@]34OOC(C)(CCC13)O[C@H]4O[C@]2(C)C(=O)OCCCl (single isomer, unassigned)
Cured/treated (Mus musculus [24]): 0 | Cured/treated (Mus musculus [2]): 0

C[C@@H]1CC[C@@H]2[C@]34OOC(C)(CCC13)O[C@H]4O[C@]2(C)COS(=O)(=O)c1ccccc1 (single isomer, unassigned)
Cured/treated (Mus musculus [5]): 0

Cc1ccc(S(=O)(=O)OC[C@@]2(C)O[C@@H]3OC4(C)CCC5[C@H](C)CC[C@@H]2[C@]53OO4)cc1 (single isomer, unassigned)
Cured/treated (Mus musculus [25]): 5

C[C@@H]1CC[C@@H]2[C@]34OOC(C)(CCC13)O[C@H]4O[C@]2(C)COC=O (single isomer, unassigned)
Cured/treated (Mus musculus [22]): 0

C[C@@H]1CC[C@@H]2[C@]34OOC(C)(CCC13)O[C@H]4O[C@]2(C)CC(=O)Oc1ccc([N+](=O)[O-])cc1 (single isomer, unassigned)
Cured/treated (Mus musculus [4]): 1

C[C@@H]1CC[C@@H]2[C@]34OOC(C)(CCC13)O[C@H]4O[C@]2(C)COC(=O)CCCCl (single isomer, unassigned)
Cured/treated (Mus musculus [2]): 0

C[C@@H]1CC[C@@H]2[C@]34OOC(C)(CCC13)O[C@H]4O[C@]2(C)COS(C)(=O)=O (single isomer, unassigned)
Cured/treated (Mus musculus [2]): 0

C[C@@H]1CC[C@@H]2[C@]34OOC(C)(CCC13)O[C@H]4O[C@]2(C)COC(=O)CCl (single isomer, unassigned)
Cured/treated (Mus musculus [2]): 0

CCOC(=O)[C@@]1(C)O[C@@H]2OC3(C)CCC4[C@H](C)CC[C@@H]1[C@]42OO3 (single isomer, unassigned)
Cured/treated (Mus musculus [26]): 0

C[C@@H]1CC[C@@H]2[C@]34OOC(C)(CCC13)O[C@H]4O[C@]2(C)C(=O)OCCCCCCCCCl (single isomer, unassigned)
Cured/treated (Mus musculus [26]): 0

C[C@@H]1CC[C@@H]2[C@]34OOC(C)(CCC13)O[C@H]4O[C@]2(C)C(=O)OCCCCl (single isomer, unassigned)
Cured/treated (Mus musculus [2]): 0

C[C@@H]1CC[C@@H]2[C@]34OOC(C)(CCC13)O[C@H]4O[C@]2(C)C(=O)N1CCOCC1 (single isomer, unassigned)
Cured/treated (Mus musculus [5]): 0

C[C@@H]1CC[C@@H]2[C@]34OOC(C)(CCC13)O[C@H]4O[C@]2(C)COC(=S)N1CCN(c2cccc(C(F)(F)F)c2)CC1 (single isomer, unassigned)
Cured/treated (Mus musculus [2]): 0
